{"source": "patent US20220184091A1", "about": "“Methods of Treating Cancer with Chk1 Inhibitors” (Sierra Oncology, Inc., priority 2019, published 2022)", "key": {"[1]": {"tested_on": "NSCLC cancer lines (A549, Calu1, Calu6, H1299, H1573, H1944, H1993)", "assay": "Cell viability, NSCLC cancer lines", "type": "cell-based", "details": "read-out: IC50 range"}, "[2]": {"tested_on": "IFNβ, CXCL10 and CCL5", "assay": "qPCR of IFNβ, CXCL10 and CCL5 in resected RPP tumors", "type": "in vivo, mouse", "experimental": "Data presented as mean±SD and p values by t-test * p<0.05, **p<0.01, ***p<0.001.\n(§1) Real-time PCR was done using SYBR Select Master Mix (Life Technologies, cat #4472908) according to the manufacturer's protocol. Primers were purchased from Sigma Aldrich, Inc. Triplicate PCR reactions were run on ABI (7500 Fast Real Time PCR System). The comparative Ct method using the average 2ΔΔCT value for each set of triplicates was used, and the average of the biological replicates was calculated. Negative controls were included for every primer set, and GAPDH was used as the […]."}, "[3]": {"tested_on": "CD4+ and CD8+ cells", "assay": "CD4 and CD8 IHC staining in MC38 tumors", "type": "in vivo, mouse", "details": "after 14 days, SRA737 7-days-on/7-days-off, antibody Days 3, 7 and 11", "experimental": "Measurements were taken post treatment on day 15.\nFor immunohistochemistry, cryosections (8 μm) of tumor tissues were fixed with acetone and stained with antibody against mouse CD4 (Sinobiological, Cat. no. 50134-R001) and CD8 (eBioscience, Cat. No. 14-0808-82) and horseradish peroxidase-conjugated secondary antibody. The image of the entire stained tumor section was scanned with an Olympus BX41 microscope and a semi-quantitative immunohistochemical score was determined by visual examination of the entire stained section of the tumor. The score between 0-6 was assigned by taking into consideration the intensity of positive staining within the tumor section and the prevalence of positive staining within the entire tumor section.\nThe MC38 tumors were then harvested after 14 days of treatment with SRA737 monotherapy and its combination therapy with an […] (Days 3, 7 and 11) according to a modified dosing regimen of 7-days-on/7-days-off to determine the infiltration of CD4+ and CD8+ cells by immunohistochemistry staining. […] The tumor growth inhibition under this altered dosing regimen was 61% in SRA737 monotherapy and 63% in the combination therapy of SRA737 and anti-PD-1. […]"}, "[4]": {"tested_on": "CXCL10 and CCL5", "assay": "qPCR of CXCL10 and CCL5 in MC38 tumors", "type": "in vivo, mouse", "excerpt": "FIGS. 23A-D show the qPCR measurement of CXCL10 and CCL5 mRNA expression in MBT-2 (FIG. 23A and FIG. 23B) and MC38 (FIG. 23C and FIG. 23D) tumors resected after 7 or 14 days of treatment with SRA737 5/7 days. Data presented as mean±SD and p values by t-test * p<0.05, **p<0.01, ***p<0.001.\nas §1\nThe flank of immunocompetent mice was then treated with SRA737 monotherapy for 5-days-on/2-days-off for either one or two cycles and the expression of CCL5 and CXCL10 in extracted tumors were analyzed. […] The previously used dosing regimen of 5-days-on/2-days-off was modified to a schedule of 7-days-on/7-days-off for SRA737 treatment with or without co-treatment with anti-PD1 (Days 3, 7 and 11) based on the results of induction of chemokines secretion after 7 days."}, "[5]": {"tested_on": "PD-L1", "assay": "Flow cytometry of surface PD-L1 in SCLC cell lines", "type": "cell-based", "details": "all SCLC cell lines tested; 1 μM for 72 hours", "experimental": "Data presented as mean±SD and p values by t-test ***p<0.001.\nSingle-cell suspensions were prepared and stained according to standard protocols for flow cytometry with antibodies. For intracellular staining, cells were fixed and permeabilized with BD Cytofix/Cytoperm (BD Biosciences). The data were acquired on a Fortessa or Calibur platform (BD Biosciences) and analyzed with FlowJo software (version 7.6; Tree Star). For analyzing the abundance and the function of CD4+ or CD8+ TILs, single-cell suspensions were prepared from tumors and spleen and stained; the staining of spleen cells was used as the reference of lymphocyte gating, then CD3+ cells were gated, and then CD4+ or CD8+ population was analyzed."}, "[6]": {"target": "T1, Chk1 (Homo sapiens, UniProt O14757)", "T1 construct": "endogenous in cells", "T1 sequence (O14757 whole entry, species assumed)": "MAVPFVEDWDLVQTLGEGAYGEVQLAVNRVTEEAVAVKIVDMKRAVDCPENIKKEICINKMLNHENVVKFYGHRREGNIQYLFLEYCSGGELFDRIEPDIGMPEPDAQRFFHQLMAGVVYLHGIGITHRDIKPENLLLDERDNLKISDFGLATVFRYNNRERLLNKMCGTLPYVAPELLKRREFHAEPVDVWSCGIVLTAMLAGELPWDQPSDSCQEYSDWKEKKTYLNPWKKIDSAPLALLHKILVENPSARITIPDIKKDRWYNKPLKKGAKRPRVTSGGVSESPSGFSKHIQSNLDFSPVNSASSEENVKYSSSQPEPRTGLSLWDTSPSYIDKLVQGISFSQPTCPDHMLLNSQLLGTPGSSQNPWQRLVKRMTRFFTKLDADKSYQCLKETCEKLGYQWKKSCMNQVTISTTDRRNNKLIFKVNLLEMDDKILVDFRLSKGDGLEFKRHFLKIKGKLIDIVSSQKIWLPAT", "details": "previously found; Walton et al.; cited from earlier work"}, "[7]": {"tested_on": "EMT6/P", "assay": "Micronuclei assay, EMT6/P", "type": "cell-based", "details": "1 μM, 24 hours or 48 hours", "experimental": "H69 cells were cultured as discussed earlier and treated with or without SRA737 (1 μM). Cytochalasin B was added at 20th hour to each culture to give a final concentration of 3 μg/ml and the culture was incubated at 37° C. for up to 24 hrs. After 24 hrs incubation, the cells were centrifuged at 1000 rpm for 5 min. The supernatant was removed and the pellet was treated with weak hypotonic solution (0.075 M KCl/0.9% Saline, 1:9) and incubated at 37° C. for 5 min. After this, the cells were centrifuged and the pellets were fixed in fresh fixative (methanol:acetic acid, 3:1). Cells were dropped onto glass slides were prepared and stained with ProLong® Gold Antifade Mountant with DAPI. In the case of EMT-6 cells, micronuclei formation assays were performed at Phenovista Biosciences, San Diego. The cells were treated with either 1 μM or 5 μM SRA737 for 24h followed by mixing with 4% PFA for 20 minutes at RT directly in the culture wells, washing with PBS and staining with Hoechst (1:1000). The plates were imaged at 40× using the Thermo Fisher Scientific CellInsight CX7 imaging system and the micronuclei algorithm was adjusted to score all nuclei that are <55% of the size of the main nucleus. A total of 25 fields per well were imaged and the data was averaged across 8 replicates.\nSRA737 was also evaluated for induced cytogenetic stress using a micronuclei (MN) assay."}, "[8]": {"tested_on": "Pan02", "assay": "Pan02 pancreatic flank tumor growth in immunocompetent mice", "type": "in vivo, mouse", "details": "SRA737 100 mg/kg 5-days-on/2-days-off p.o., anti-PD1 BIW 10 mg/kg i.p.", "experimental": "Tumors were evaluated twice weekly for the duration of the study. Tumor volumes were measured on all mice three times per week and calculated (width^2×length×0.4) using manual calipers. Once the average tumor size was in the range of 120-150 mm^3, mice were randomized into dosing groups using stratified sampling by assigning three animals per group for short-term reverse-phase protein array analysis and long-term treatment. Dosing schedules and duration varied depending on the study. Mice were weighed three times per week for the duration of the study, and a decrease in body weight >15% was considered indicative of a toxic dose. The Student t-test was used to determine statistical significance between compound- and vehicle-treated groups.\nTumors cells were implanted into the flank of immunocompetent mice. Once the volumes of the tumor reached 150-200 mm^3, the mice were randomized and treated with either monotherapy of SRA737 at 100 mg/kg for 5-days-on/2-days-off p.o., anti-PD1 BIW at 10 mg/kg i.p. or the combination thereof."}}}
{"smiles": "N#Cc1cnc(Nc2cc(NCC3CNCCO3)c(C(F)(F)F)cn2)cn1", "note": "(stereo not shown) [SRA737, 5-[[4-[[morpholin-2-yl]methylamino]-5-(trifluoromethyl)-2-pyridyl]amino]pyrazine-2-carbonitrile]", "values": [{"measurement": "IC50", "setting": "[1]", "value": "≥ 0.8", "unit": "µM"}, {"measurement": "gene expression levels of IFNβ, CXCL10 and CCL5 vs vehicle", "setting": "[2]; RPP tumors at Day 21, 100 mg/kg 5-days-on/2-days-off", "value": "higher gene expression levels"}, {"measurement": "expression of IFNβ, CCL5 and CXCL10", "setting": "[2]; RPP tumors resected at Day 21, SRA737 2-days-on/5-days-off", "value": "Neither LDG nor SRA737 monotherapy (2-days-on/5-days-off) showed any significant effect"}, {"measurement": "infiltration of CD4+ and CD8+ cells into the tumors", "setting": "[3]", "value": "significant increase"}, {"measurement": "expression of CCL5", "setting": "[4]; after 7 days", "value": "modestly but not statistically significantly reduced"}, {"measurement": "CXCL10 levels", "setting": "[4]; after 14 days, p<0.05", "value": "significantly increased"}, {"measurement": "cell surface PD-L1 expression", "setting": "[5]", "value": "significantly increased"}, {"measurement": "off-target activity against other kinases", "setting": "[6]", "value": "limited off-target activity against other kinases"}, {"measurement": "micronuclei formation", "setting": "[7]", "value": "led to micronuclei formation"}, {"measurement": "TGI", "setting": "[8]", "value": 59, "unit": "%"}]}
